Laboratory results as given in patent publication US20080305995A1, “Royal Jelly Peptide and Composition Containing the Same” (priority 2003, published 2008).

How the values were obtained:
honeybee larvae = assay: Effect of inducing differentiation to queen bees (honeybee artificial breeding, peptide in artificial diet); format: in vivo, Western honeybees (Apis mellifela)
Method: Functional analysis was carried out by using the royal jelly peptide obtained in Example 6. Specifically, honeybees were bred according to the existing honeybee artificial breeding method. In this process, 500 ng of the royal jelly peptide was added in the artificial diet to be administered per honeybee. On the other hand, for the control group, bovine serum albumin was used in place of the royal jelly peptide.
The growth rate from larvae to imagines is about 20%. […] From this, it can be considered that the royal jelly peptide of the invention of this invention is […] having an auxiliary function in inducing differentiation to queen bees.

[1] = system: lymphocyte cell derived from a mouse spleen; assay: Immunity activation test (alamar blue, lymphocyte growth); format: cell-based, ICR type mice; details: 3 μg/ml and 6 μg/ml, every 12 hours for 4 days, compared with no addition (FIG. 9)
Method: For the laboratory animal, ICR type mice (female, Nippon SLC) were used.
Whereas, for the medium, an RPMI medium (manufactured by Nissui Pharmaceutical Co., Ltd.) containing 10% fetal calf serum (FCS), 2 mM L-glutamine, 50 μM 2-mercaptoethanol, 100 Units/ml penicillin, and 100 μg/ml streptomycin was used. Thus, culturing was carried out in 5% CO2 at 37° C. under wet conditions.
Namely, the mice anesthetized with diethyl ether were subjected to cervical vertebrae dislocation, and fixed. Then, by using scissors for dissection and tweezers, the spleen was excised, and transferred to a dish containing therein 10 ml of PBS (−) (137 mM NaCl, 2.7 mM KCl, 2 mM Na2HPO4-12HyO, 1.5 mM KH2PO4). In the dish, the spleen was homogenized. […]
The lymph cell suspension controlled was dyed with a 0.4% trypan blue solution, and the number of cells was counted by means of a Burker-Turk hemocytomer. […]
The lymph cell suspension controlled in the item <bb was added in an amount of 100 μl per well into a 96-well microplate (manufactured by IWAKI Co.). […] Thus, the changes in absorbance were measured by means of a microplate reader (manufactured by Nalge Nunc International Co.) set at a wavelength of 590 to 620 nm every 12 hours for 4 days to analyze the effects of each fraction and isolated compound on the lymphocytes. […]

[2] = 500 ng per honeybee in artificial diet, 24 first instar larvae
[3] = 500 ng per honeybee in artificial diet, number among imagines

apisimin (KTSISVKGESNVDVVSQINSLVSSIVSGANVSAVLLAQTLVNILQILIDANVFA) [Recombinant peptide, Royal jelly peptide of 54 amino acid residues (apisimin), expressed in E. coli as thioredoxin fusion, cleaved with Factor Xa]
Number of imagines (honeybee larvae; [2]): 4 | Number of last instar larvae (honeybee larvae; [2]): 14 | Number of pupae (honeybee larvae; [2]): 8 | Caste: Intermediates (honeybee larvae; [3]): 1 | Caste: Queen (honeybee larvae; [3]): 0 | Caste: Working bee (honeybee larvae; [3]): 3 | growth rate from larvae to imagines (honeybee larvae; Table 1 experiment): about 20% | emergence of intermediates out of the larvae (honeybee larvae; larvae to which the royal jelly peptide had been administered): intermediates can be allowed to emerge | effect on the growth of lymphocyte cells (alamar blue absorbance) [1]: remarkably exhibited
